Earlier results, collected in article PMC9516332 (Frontiers in Oncology, 2022).
Read-outs that look alike come from different tables or passages of the source.

Experiments:
[1] = molecular target: panel of 255 wild-type kinases (Homo sapiens, UniProt P06241); settings: kinase FYN [isoform a], 1 µmol/L single concentration, cited from earlier work
[2] = molecular target: panel of 255 wild-type kinases (Homo sapiens, UniProt P11309); settings: kinase PIM1, 1 µmol/L single concentration, cited from earlier work
[3] = molecular target: panel of 255 wild-type kinases (Homo sapiens, UniProt P17612); settings: kinase PKACα, 1 µmol/L single concentration, cited from earlier work
[4] = molecular target: panel of 255 wild-type kinases (Homo sapiens, UniProt P49841); settings: kinase GSK3β, 1 µmol/L single concentration, cited from earlier work
[5] = molecular target: panel of 255 wild-type kinases (Homo sapiens, UniProt P51451); settings: BLK kinase assay, 1 µmol/L single concentration, cited from earlier work
[6] = molecular target: panel of 255 wild-type kinases (Homo sapiens, UniProt P54756); settings: kinase EPHA5, 1 µmol/L single concentration, cited from earlier work
[7] = molecular target: panel of 255 wild-type kinases (Homo sapiens, UniProt P78368); settings: kinase CK1γ2, 1 µmol/L single concentration, cited from earlier work
[8] = molecular target: T1, panel of 255 wild-type kinases (Homo sapiens, UniProt Q12851); settings: kinase MAP4K2, 1 µmol/L single concentration, cited from earlier work
T1 sequence (Q12851 1-820): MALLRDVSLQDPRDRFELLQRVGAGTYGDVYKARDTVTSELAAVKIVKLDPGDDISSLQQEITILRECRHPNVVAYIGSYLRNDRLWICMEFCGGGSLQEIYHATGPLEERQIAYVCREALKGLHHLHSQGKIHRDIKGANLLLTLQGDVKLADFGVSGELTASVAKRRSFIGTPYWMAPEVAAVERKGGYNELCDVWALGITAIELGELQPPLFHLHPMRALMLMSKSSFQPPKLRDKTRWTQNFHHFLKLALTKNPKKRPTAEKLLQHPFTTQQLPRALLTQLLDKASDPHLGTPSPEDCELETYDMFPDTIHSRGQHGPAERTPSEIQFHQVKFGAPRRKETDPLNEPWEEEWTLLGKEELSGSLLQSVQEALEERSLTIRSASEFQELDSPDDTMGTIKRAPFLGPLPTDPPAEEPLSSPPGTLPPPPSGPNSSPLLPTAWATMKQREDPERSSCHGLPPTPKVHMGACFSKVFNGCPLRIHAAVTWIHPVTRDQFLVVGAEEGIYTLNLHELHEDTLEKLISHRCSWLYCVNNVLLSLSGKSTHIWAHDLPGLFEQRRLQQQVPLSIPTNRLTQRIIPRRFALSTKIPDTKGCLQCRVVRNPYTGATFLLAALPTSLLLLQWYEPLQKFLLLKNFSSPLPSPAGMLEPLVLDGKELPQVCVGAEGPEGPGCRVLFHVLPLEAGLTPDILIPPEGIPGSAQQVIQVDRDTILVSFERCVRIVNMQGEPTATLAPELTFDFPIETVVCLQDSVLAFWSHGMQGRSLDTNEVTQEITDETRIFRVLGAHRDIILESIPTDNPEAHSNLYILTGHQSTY

[9] = molecular target: panel of 255 wild-type kinases (Homo sapiens, UniProt Q13555); settings: CaMK2γ kinase assay, 1 µmol/L single concentration, cited from earlier work
[10] = molecular target: panel of 255 wild-type kinases (Homo sapiens, UniProt Q13627); settings: kinase DYRK1A, 1 µmol/L single concentration, cited from earlier work
[11] = molecular target: panel of 255 wild-type kinases (Homo sapiens, UniProt Q16512); settings: kinase PKN1, 1 µmol/L single concentration, cited from earlier work
[12] = molecular target: panel of 255 wild-type kinases (Homo sapiens, UniProt Q9HBH9); settings: MNK2, 1 µmol/L single concentration, cited from earlier work
[13] = molecular target: T2, panel of 255 wild-type kinases (Homo sapiens, UniProt Q9NWZ3); settings: kinase IRAK4, 1 µmol/L single concentration, cited from earlier work
T2 sequence (Q9NWZ3 1-460): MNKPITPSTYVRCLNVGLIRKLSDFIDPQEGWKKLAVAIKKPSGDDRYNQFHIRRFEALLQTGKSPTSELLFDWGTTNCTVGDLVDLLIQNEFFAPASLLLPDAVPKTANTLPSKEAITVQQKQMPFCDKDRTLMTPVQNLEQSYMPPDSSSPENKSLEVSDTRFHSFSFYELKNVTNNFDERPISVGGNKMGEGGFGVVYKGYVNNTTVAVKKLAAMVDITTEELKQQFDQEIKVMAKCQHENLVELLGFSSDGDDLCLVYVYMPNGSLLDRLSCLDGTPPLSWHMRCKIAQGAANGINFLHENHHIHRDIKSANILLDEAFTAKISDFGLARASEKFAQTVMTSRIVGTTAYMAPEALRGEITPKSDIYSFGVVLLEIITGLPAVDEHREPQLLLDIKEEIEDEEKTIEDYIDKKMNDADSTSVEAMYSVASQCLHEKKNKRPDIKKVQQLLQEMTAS

[14] = molecular target: panel of 255 wild-type kinases (Homo sapiens, UniProt Q9Y243); settings: AKT3 kinase assay, 1 µmol/L single concentration, cited from earlier work
[15] = ref DOI: 10.1371/journal.pone.0092146
[16] = ref DOI: 10.1158/1535-7163.MCT-18-0877

| Structure (SMILES) | %-inhibition at 1 µmol/L, FYN [isoform a] [1, 15] [%] | %-inhibition at 1 µmol/L, PIM1 [2, 15] [%] | %-inhibition at 1 µmol/L, PKACα [3, 15] [%] | %-inhibition at 1 µmol/L, GSK3β [4, 15] [%] | %-inhibition BLK [5, 15] [%] | %-inhibition at 1 µmol/L, EPHA5 [6, 15] [%] | %-inhibition at 1 µmol/L, MAP4K2 [8, 15] [%] | %-inhibition CaMK2γ [9, 15] [%] | %-inhibition at 1 µmol/L, DYRK1A [10, 15] [%] | %-inhibition at 1 µmol/L, PKN1 [11, 15] [%] | %-inhibition, MNK2 [12, 15] [%] | %-inhibition at 1 µmol/L, IRAK4 [13, 15] [%] | %-inhibition at 1 µmol/L, FYN [isoform a] [1, 16] [%] | %-inhibition at 1 µmol/L, PKACα [3, 16] [%] | %-inhibition BLK [5, 16] [%] | %-inhibition at 1 µmol/L, EPHA5 [6, 16] [%] | %-inhibition at 1 µmol/L, CK1γ2 [7, 16] [%] | %-inhibition at 1 µmol/L, MAP4K2 [8, 16] [%] | %-inhibition, MNK2 [12, 16] [%] | %-inhibition at 1 µmol/L, IRAK4 [13, 16] [%] | also measured |
| --- | --- | --- | --- | --- | --- | --- | --- | --- | --- | --- | --- | --- | --- | --- | --- | --- | --- | --- | --- | --- | --- |
| CCCS(=O)(=O)Nc1ccc(F)c(C(=O)c2c[nH]c3ncc(-c4ccc(Cl)cc4)cc23)c1F [vemurafenib] | 81 | -3.41 | -4 | 8 | 52 | 14 | 43 | -10 | -18 | -0.378 | 27 | -4.29 | – | – | – | – | – | – | – | – | %-inhibition at 1 µmol/L, CK1γ2 [7, 15]: 0.506%; %-inhibition AKT3 [14, 15]: -0.678% |
| CC(=O)Nc1cccc(-n2c(=O)n(C3CC3)c(=O)c3c(Nc4ccc(I)cc4F)n(C)c(=O)c(C)c32)c1 [trametinib] | 9 | 4.44 | 8.52 | -15 | -2.79 | -2.67 | 4 | 7 | -1.23 | 3.71 | -11 | -5 | – | – | – | – | – | – | – | – | %-inhibition at 1 µmol/L, CK1γ2 [7, 15]: -2.15%; %-inhibition AKT3 [14, 15]: -5.3% |
| CCc1cc2c(cc1N1CCC(N3CCOCC3)CC1)C(C)(C)c1[nH]c3cc(C#N)ccc3c1C2=O [alectinib] | – | – | – | – | – | – | – | – | – | – | – | – | 15 | 5 | 17 | 2.67 | -0.041 | 7.56 | 13 | 19 | %-inhibition at 1 µmol/L, PIM1 [2, 16]: 15%; %-inhibition at 1 µmol/L, GSK3β [4, 16]: 2.37%; %-inhibition CaMK2γ [9, 16]: 6%; %-inhibition at 1 µmol/L, DYRK1A [10, 16]: 4%; %-inhibition at 1 µmol/L, PKN1 [11, 16]: 13%; %-inhibition AKT3 [14, 16]: -0.889% |
| CC(C)(C)c1nc(-c2cccc(NS(=O)(=O)c3c(F)cccc3F)c2F)c(-c2ccnc(N)n2)s1 [dabrafenib] | – | – | – | – | 80 | – | 8 | -5.47 | 16 | -2.84 | – | – | – | – | – | – | – | – | – | – | – |
| CC#CC(=O)N1CCC[C@H]1c1nc(-c2ccc(C(=O)Nc3ccccn3)cc2)c2c(N)nccn12 [acalabrutinib] | – | – | – | – | – | – | – | – | – | – | – | – | 6 | -5 | 8.43 | -1.17 | -7 | -11 | 12 | -6.55 | %-inhibition at 1 µmol/L, PIM1 [2, 16]: -4.28%; %-inhibition at 1 µmol/L, GSK3β [4, 16]: -2.39%; %-inhibition CaMK2γ [9, 16]: -1.85%; %-inhibition at 1 µmol/L, DYRK1A [10, 16]: -4.57%; %-inhibition at 1 µmol/L, PKN1 [11, 16]: 11%; %-inhibition AKT3 [14, 16]: -5% |
| CO[C@@H]1[C@H](N(C)C(=O)c2ccccc2)C[C@H]2O[C@]1(C)n1c3ccccc3c3c4c(c5c6ccccc6n2c5c31)C(=O)NC4 [midostaurin] | – | – | – | – | – | – | – | – | – | – | – | – | 78 | 93 | 84 | 8 | -2.45 | 94 | 80 | 27 | %-inhibition at 1 µmol/L, PIM1 [2, 16]: 52% |
| C=CC(=O)N1CCC[C@@H](n2nc(-c3ccc(Oc4ccccc4)cc3)c3c(N)ncnc32)C1 [ibrutinib] | – | – | – | – | – | – | – | – | – | – | – | – | 93 | -11 | 101 | 26 | 1 | -4.43 | 20 | -5 | %-inhibition at 1 µmol/L, GSK3β [4, 16]: -4%; %-inhibition CaMK2γ [9, 16]: -1.83%; %-inhibition at 1 µmol/L, DYRK1A [10, 16]: -3.54%; %-inhibition at 1 µmol/L, PKN1 [11, 16]: 9%; %-inhibition AKT3 [14, 16]: -2.25% |
| C[C@@H](Oc1cc(-c2cnn(C3CCNCC3)c2)cnc1N)c1c(Cl)ccc(F)c1Cl [crizotinib] | 42 | -7 | -6 | -2.11 | – | 71 | – | -10 | -13 | 23 | 2 | 8 | – | – | – | – | – | – | – | – | %-inhibition AKT3 [14, 15]: -1.83% |
